The numbers were not newly measured in patent publication US12295956B2, “Anti-viral compositions” (Calladine Pharmaceuticals Limited, priority 2018, dated 2025), which cites them from elsewhere.

The conditions of data set [1]: gentle heating to a pourable hot liquid.

Turning to `Nc1nc2c(ncn2COCCO)c(=O)[nH]1` [Aciclovir, aciclovir], in data set [1], the heat stability result is “relatively heat stable”. Further, the “solubility in hydrophobic solvent systems” value (hydrophobic solvent systems) is “almost totally insoluble”. Further, the solubility in water result (water) is “poor solubility in water”.
